Results as given in US20260144862A1, “MATERIALS AND METHODS TO TREAT EPSTEIN-BARR VIRUS (EBV) AND EBV-INDUCED DISEASES” (Medizinische Universität Wien, priority 2022, published 2026).

How the values were obtained:
NKG2A+ NK cells = experiment: NKG2A+ NK cell inhibition assay; type: cell-based, human; details: K562-HLA-E*0101/0101 or K562-HLA-E*0103/0103 target cells pulsed with 300 μM LMP-1 peptide
Experimental: For the NKG2A^+ NK cell inhibition experiments, MACS-enriched CD56^+ cells were quickly thawed at 37° C., washed, and pre-activated overnight in RPMI, 10% FCS, 1% L-glutamine (all: Thermo Fisher Scientific), 10 ng/ml IL-12 (PeproTec) and 100 ng/ml IL-18 (Biozym Scientific) at 37° C. CD56^+ NK cells were then harvested by centrifugation at 400×g for 5 minutes and washed once with Opti-MVEM I Reduced Serum Medium (Gibco). The NK cells were then cultured together with peptide pulsed K562-HLA-E*0101/0101 or K562-HLA-E*0103/0103 cells (E:T, 1:2) and 5 μL mouse anti-human CD107-APC-H7 (BD) for 6 h. NK cells were then harvested, fixed with the FIX & PERM Cell Fixation & Cell Permeabilization Kit (Thermo-Scientific) and analysed by flow-cytometry, as described below.

NKG2A+ CD8+ T cells = experiment: NKG2A+ CD8+ T cell inhibition assay; type: cell-based, human; details: K562-HLA-E*0101/0101 or K562-HLA-E*0103/0103 target cells pulsed with 300 μM peptide
Experimental: For the CD8^+ T cells experiments, CD8^+ MACS-enriched cells were quickly thawed at 37° C., washed once, and pre-activated overnight in RPMI, 10% FCS, 1% L-glutamine and 20 ng/ml IL-2 (PeproTec) at 37° C. CD8^+ T cells were then harvested by centrifugation (400×g, 5 min) and then washed once with Opti-MEM I Reduced Serum Medium. CD8^+ T cells were then cultured together with peptide pulsed K562-HLA-E*0101/0101 or K562-HLA-E*0103/0103 cells (E:T, 1:2), 1× monensin and 1× brefeldin A for 6 h. […] were harvested, fixed with the FIX & PERM Cell Fixation & Cell Permeabilization Kit and analysed by flow-cytometry, as described below.

EBV B95-8 isolate = experiment: Virus (EBV) dissemination assay in K562-CR2-HLA-E cells; type: cell-based, Epstein-Barr virus; details: for viral spread (BZLF1+ K562-CR2-HLA-E cells); effect of peptide on NKG2A+ NK or NKG2A+ CD8+ T cell mediated prevention of the viral spread: 300 μM LMP-1 peptide, 2-14 days of co-culture; for inhibition of NKG2A+ CD8+ T cells in EBV-dissemination assay (granzyme B-expressing cells) / inhibition of NKG2A+ NK cells in EBV-dissemination assay (granzyme B-expressing cells): peptide-pulsed K562-CR2-HLA-E*0103/0103 and K562-CR2-HLA-E*0101/0101 cells; for inhibition of NKG2A+ CD8+ T cells in EBV-dissemination assay (granzyme B-expressing cells): sorted NKG2A+ CD8+ T cells; for inhibition of NKG2A+ NK cells in EBV-dissemination assay (granzyme B-expressing cells): sorted NKG2A+ NK cells
Experimental: For the virus dissemination assays, the marmoset B-lymphoblastoid cell line B95-8 was cultured in RPM1 1640 medium supplemented with 20 mM glutamine, 50 µg/ml gentamicin, 0.2 µg/ml amphotericin B and 10% FCS (Thermo-Scientific). Cells were then cultured in the presence of […] (Biomol) for two weeks. EBV was harvested from the supernatant and enriched by ultracentrifugation (30000 U/min, 90 min, 10° C.). The virus stocks were stored at −80° C. in RPMI 1640 medium+10% FCS+10% DMSO (all: Thermo-Scientific). The multiplicity of infection (MOI) of the viral stocks was determined on K562-CR2-HLA-E*0101/0101 and K562-CR2-HLA-E*0103/0103 cells by flow-cytometry.
RMA-S/HLA-E/LFA-3 cells (kindly provided by Chiara Romagnani, DRFZ, Berlin) were maintained in RPMI-1640+20 mM glutamine+10% FCS+20 μM β-mercaptoethanol+100 U/ml penicillin-streptomycin (all Thermo Fisher)+400 μg/ml hygromycin B+1 mg/ml G418 (both InvivoGen). 2×10^6 RMA-S/LFA3/HLA-E cells were incubated for 16 h at 37° C., 5% CO2, with 300 μM of respective peptides (Peptides&Elephants) in 1 ml serum-free OptiMEM (Thermo-Fisher). Cells were afterwards inactivated using 20 μg/mL Mitomycin C (Sigma Aldrich) at 37° C. for 30 minutes. Peptide pulsed RMA-S/LFA3/HLA-E cells were co-cultured with […] CFSE (Thermo-Fisher) stained CD56^+ or CD8^+ MACS-enriched cells for 7 days in RPMI+10% FCS. Proliferating (CFSE^low) NKG2A^+CD56^+ NK cells, NKG2A^+ CD8^+ T cells or […]-specific, HLA-E-restricted NKG2A^+ or NKG2A^− T cells were then sorted by FACS as described below.
Fresh K562-CR2-HLA-E*0101/0101 and K562-CR2-HLA-E*0103/0103 cells were then inactivated using 20 μg/mL Mitomycin C at 37° C. for 30 minutes and then infected with the EBV B95-8 isolate (MOI=1) for 24 h. The infected cells were then co-cultured together with the sorted NKG2A^+ CD56^+ NK cells, NKG2A^+ CD8^+ T cells or […]-specific, HLA-E-restricted NKG2A^+ or NKG2A^− T cells (E:T, 1:2). In some experiments, 300 μM of respective peptides was also added. At indicated time points, the cells were harvested and analyzed by flow-cytometry, as described below.

HLA-E = experiment: LMP-1 dependent HLA-E up-regulation assay in GlialCAM370-389-specific B-cells; type: cell-based, human; details: B-cells from 24 healthy blood donors transfected with LMP-1 peptide, 16 h
Experimental: (§1) For the HLA-E stabilization experiments, 5×10^6 viable CFSE stained PBMCs were cultured in RPMI-1640+10% FCS in the presence of 10 μg GlialCAM370-389 ([…]), 10 μg of random 20 amino acid peptides (negative control, GenScript) or without peptides (non-peptide control) and 10 ng/mL IL-2 (Peprotech) at 37° C. Every three days, fresh 10 μg GlialCAM370-389 and 10 ng/mL IL-2 were added. After 7 days of co-culture, GlialCAM370-389-specific B-cells were sorted. 1×10^5 GlialCAM370-389-specific B-cells were then individually transfected with the indicated concentrations of the LMP-1 peptides (Peptides&Elephants) using the Pierce Protein Transfection Reagent according to the manufacturer's instructions (Thermo Fisher). After 16 h, the cells were either fixed and analyzed for HLA-E expression by flow cytometry, as described below, or washed once with Opti-MEM I Reduced Serum Medium (Gibco) and subsequently used in NKG2A^+ NK cell inhibition experiments. For the NKG2A^+ NK cell inhibition experiments, sorted NKG2A^+NKG2C^−NKG2D^− NK cells from 24 healthy blood donors were cultured together with peptide-pulsed GlialCAM370-389 B-cells (E:T, 1:1) for 6 h at 37° C. After co-cultivation, the supernatant was removed, cleared by centrifugation (1000×g, 5 min), and analyzed using IFNγ ELISA according to the manufacturer's recommendations (Thermo Fisher).

[1] = tested on: NKG2A+ NKG2C−NKG2D− NK cells; experiment: NKG2A+ NK cell inhibition by LMP-1 peptide-transfected GlialCAM370-389-specific B-cells (IFNγ ELISA); type: cell-based, human; details: LMP-1 peptide-pulsed GlialCAM370-389-specific B-cells, E:T 1:1, 6 h
Experimental: as §1

[2] = tested on: NKG2A+ NKG2D−NKG2C− NK cells; experiment: NK cell inhibition assay with GlialCAM370-389-specific cells, with or without NKG2A-blocking antibody (IFNγ ELISA); type: cell-based, human; details: 10 μg/mL antibody, 12 h co-culture
Experimental: For the NK cell inhibition assays, GlialCAM370-389-specific (CFSE^low) CD4^+ T-cells, CD8^+ T-cells, and CD138^+ plasma cells were sorted and co-cultured together in an E:T ratio of 1:1 with sorted CD56^+NKG2A^+ NKG2D^−NKG2C^− NK cells from 24 healthy blood donors in OptiMem (Thermo Fisher) for 12 h at 37° C. For some experiments α-NKG2A blocking monoclonal antibodies (Monalizumab, 10 μg/mL, Innate Pharma) was added to the co-culture. The supernatant was removed, cleared by centrifugation (1000×g, 5 min), and then used for IFNγ (both Thermo Fisher) according to the manufacturer's instructions.

Row | Molecule | inhibition of NKG2A+ NK cells (NKG2A+ NK cells) | inhibition of NKG2A+ CD8+ T cells (IFNγ-expressing NKG2A+ CD8+ T cells) (NKG2A+ CD8+ T cells) | viral spread (BZLF1+ K562-CR2-HLA-E cells); effect of peptide on NKG2A+ NK or NKG2A+ CD8+ T cell mediated prevention of the viral spread (EBV B95-8 isolate) | inhibition of NKG2A+ CD8+ T cells in EBV-dissemination assay (granzyme B-expressing cells) (EBV B95-8 isolate) | inhibition of NKG2A+ NK cells in EBV-dissemination assay (granzyme B-expressing cells) (EBV B95-8 isolate) | upregulation of HLA-E on the surface of GlialCAM370-389-specific B-cells (HLA-E) | inhibition of NKG2A+ cells (IFNγ concentration in the supernatant) [1] | inhibition of NKG2A+ cells by GlialCAM370-389-specific cells from patients with MS when NKG2A-blocking antibody is added [2]
1 | GGDPHLPTL [EBV LMP-1 peptide variant] | potent inhibition | potent inhibition | increased viral spread | caused the inhibition | caused the inhibition | stable upregulation of HLA-E | potently inhibited | –
2 | GGDPPLPTL [EBV LMP-1 peptide variant] | potent inhibition | potent inhibition | increased viral spread | caused the inhibition | caused the inhibition | stable upregulation of HLA-E | potently inhibited | –
3 | Monalizumab: α-NKG2A blocking monoclonal antibodies (Innate Pharma) (antibody, chains of the INN, looked up, V domains shown) VH: QVQLVQSGAEVKKPGASVKVSCKASGYTFTSYWMNWVRQAPGQGLEWMGRIDPYDSETHYAQKLQGRVTMTTDTSTSTAYMELRSLRSDDTAVYYCARGGYDFDVGTLYWFFDVWGQGTTVTVSS VL: DIQMTQSPSSLSASVGDRVTITCRASENIYSYLAWYQQKPGKAPKLLIYNAKTLAEGVPSRFSGSGSGTDFTLTISSLQPEDFATYYCQHHYGTPRTFGGGTKVEIK | – | – | – | – | – | – | – | reversible
